biological target: T1, PAR4 (Homo sapiens, UniProt Q96RI0); experiment: PAR4 FLIPR assay (antagonism of agonist peptide-induced calcium mobilization); assay type: cell-based
T1 construct: expressed in transfected cells; host or cells: HEK293 PAR4 Clone 1.2A (BMS Arctic ID 383940)
T1 sequence (Q96RI0 18-385): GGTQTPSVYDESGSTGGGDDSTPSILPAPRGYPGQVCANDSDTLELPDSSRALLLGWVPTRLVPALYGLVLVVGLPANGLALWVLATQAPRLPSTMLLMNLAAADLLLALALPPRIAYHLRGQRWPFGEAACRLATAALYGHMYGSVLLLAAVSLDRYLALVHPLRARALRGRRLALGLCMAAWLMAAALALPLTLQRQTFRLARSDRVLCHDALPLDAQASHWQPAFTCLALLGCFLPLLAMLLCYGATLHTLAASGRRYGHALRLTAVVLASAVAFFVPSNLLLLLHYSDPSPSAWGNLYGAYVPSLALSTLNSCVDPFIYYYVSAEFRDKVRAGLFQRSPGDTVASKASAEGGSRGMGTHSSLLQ
Method in brief: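 Antagonism was taken as block of calcium mobilization evoked by the agonist peptide H-Ala-Phe(4-F)-Pro-Gly-Trp-Leu-Val-Lys-Asn-[…]-NH2, added after 30 min room-temperature compound preincubation in dye-loaded PAR4-transfected HEK293 cells (endogenous PAR1). Fluorescence was read on FDSS, with compound addition alone used as the agonist counter-screen; values come from 11-point concentration-response curves.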

SMILES | IC50 [nM]
COc1cnc2c(-c3nc4c(C)cc5c(c4s3)OC[C@H](COC(=O)Nc3cnc(Cl)nc3)O5)cc(C)cc2n1 [Example 59, (R)-(2-(2-methoxy-7-methylquinoxalin-5-yl)-4-methyl-7,8-dihydro-[1,4]dioxino[2′,3′:3,4]benzo[1,2-d]thiazol-7-yl)methyl (2-chloropyrimidin-5-yl)carbamate] | 8.3
COc1cnc2c(-c3nc4c(Cl)cc5c(c4s3)OC[C@H](COC(=O)Nc3cnc(C)c(C)c3)O5)cc(C)cc2n1 [Example 60, (R)-(4-chloro-2-(2-methoxy-7-methylquinoxalin-5-yl)-7,8-dihydro-[1,4]dioxino[2′,3′:3,4]benzo[1,2-d]thiazol-7-yl)methyl (5,6-dimethylpyridin-3-yl) carbamate] | 6.9
COc1cnc2c(-c3nc4c(C)cc5c(c4s3)OC[C@H](COC(=O)Nc3cnc(F)c(C)c3)O5)cc(C)cc2n1 [Example 61, (R)-(2-(2-methoxy-7-methylquinoxalin-5-yl)-4-methyl-7,8-dihydro-[1,4]dioxino [2′,3′:3,4]benzo[1,2-d]thiazol-7-yl)methyl (6-fluoro-5-methylpyridin-3-yl)carbamate] | 23
COc1cnc2c(-c3nc4c(Cl)cc5c(c4s3)OC[C@H](COC(=O)Nc3ccc(C)nc3)O5)cc(C)cc2n1 [Example 62] | 1
COc1cnc2c(-c3nc4c(Cl)cc5c(c4s3)OC[C@H](COC(=O)Nc3cncc(C)c3)O5)cc(C)cc2n1 [Example 63] | 4.3
COc1cnc2c(-c3nc4c(Cl)cc5c(c4s3)OC[C@H](COC(=O)Nc3cnc(F)c(C)c3)O5)cc(C)cc2n1 [Example 64, (R)-(4-chloro-2-(2-methoxy-7-methylquinoxalin-5-yl)-7,8-dihydro-[1,4]dioxino [2′,3′:3,4]benzo[1,2-d]thiazol-7-yl)methyl (6-fluoro-5-methylpyridin-3-yl)carbamate] | 2.5
COc1cnc2c(-c3nc4c(Cl)cc5c(c4s3)OC[C@H](COC(=O)Nc3ccc(N(C)C)nc3)O5)cc(C)cc2n1 [Example 65, (R)-(4-chloro-2-(2-methoxy-7-methylquinoxalin-5-yl)-7,8-dihydro-[1,4]dioxino [2′,3′:3,4]benzo[1,2-d]thiazol-7-yl)methyl (6-(dimethylamino)pyridin-3-yl)carbamate] | 16
COc1cnc2c(-c3nc4c(Cl)cc5c(c4s3)OC[C@H](COC(=O)Nc3ccc4[nH]c(=O)oc4c3)O5)cc(C)cc2n1 [Example 66, (R)-(4-chloro-2-(2-methoxy-7-methylquinoxalin-5-yl)-7,8-dihydro-[1,4]dioxino[2′,3′:3,4]benzo[1,2-d]thiazol-7-yl)methyl (2-oxo-2,3-dihydrobenzo[d]oxazol-6-yl)carbamate] | 1.5
COc1cnc2c(-c3nc4c(Cl)cc5c(c4s3)OC[C@H](COC(=O)Nc3cnc4c(c3)ncn4C)O5)cc(C)cc2n1 [Example 67, (R)-(4-chloro-2-(2-methoxy-7-methylquinoxalin-5-yl)-7,8-dihydro-[1,4]dioxino[2′,3′:3,4]benzo[1,2-d]thiazol-7-yl)methyl (3-methyl-3H-imidazo[4,5-b]pyridin-6-yl)carbamate] | 0.6
COc1ccc(NC(=O)OC[C@H]2COc3c(cc(F)c4nc(-c5cc(C)cc6nc(OC)cnc56)sc34)O2)cn1 [Example 68, (R)-(4-fluoro-2-(2-methoxy-7-methylquinoxalin-5-yl)-7,8-dihydro-[1,4]dioxino[2′,3′:3,4]benzo[1,2-d]thiazol-7-yl)methyl (6-methoxypyridin-3-yl)carbamate] | 1
COc1cnc2c(-c3nc4c(Cl)cc5c(c4s3)OC[C@H](COC(=O)Nc3ccc(-n4cnc(C)n4)nc3)O5)cc(C)cc2n1 [Example 69, (R)-(4-chloro-2-(2-methoxy-7-methylquinoxalin-5-yl)-7,8-dihydro-[1,4]dioxino[2′,3′:3,4]benzo[1,2-d]thiazol-7-yl)methyl (6-(3-methyl-1H-1,2,4-triazol-1-yl)pyridin-3-yl) carbamate] | 1.7
COc1cnc2c(-c3nc4c(F)cc5c(c4s3)OC[C@H](COC(=O)Nc3cccnc3)O5)cc(C)cc2n1 [Example 70, (R)-(4-fluoro-2-(2-methoxy-7-methylquinoxalin-5-yl)-7,8-dihydro-[1,4]dioxino[2′,3′:3,4]benzo[1,2-d]thiazol-7-yl)methyl pyridin-3-ylcarbamate] | 25
COc1cnc2c(-c3nc4c(F)cc5c(c4s3)OC[C@H](COC(=O)Nc3ccc(F)nc3)O5)cc(C)cc2n1 [Example 71, (R)-(4-fluoro-2-(2-methoxy-7-methylquinoxalin-5-yl)-7,8-dihydro-[1,4]dioxino[2′,3′:3,4]benzo[1,2-d]thiazol-7-yl)methyl (6-fluoropyridin-3-yl)carbamate] | 2.9
COc1cnc2c(-c3nc4c(F)cc5c(c4s3)OC[C@H](COC(=O)Nc3cccc(C#N)c3)O5)cc(C)cc2n1 [Example 72, (R)-(4-fluoro-2-(2-methoxy-7-methylquinoxalin-5-yl)-7,8-dihydro-[1,4]dioxino[2′,3′:3,4]benzo[1,2-d]thiazol-7-yl)methyl (3-cyanophenyl)carbamate] | 7.7
COc1cnc2c(-c3nc4c(F)cc5c(c4s3)OC[C@H](COC(=O)Nc3ccncc3)O5)cc(C)cc2n1 [Example 73, (R)-(4-fluoro-2-(2-methoxy-7-methylquinoxalin-5-yl)-7,8-dihydro-[1,4]dioxino[2′,3′:3,4]benzo[1,2-d]thiazol-7-yl)methyl pyridin-4-ylcarbamate] | 12
COc1cnc2c(-c3nc4c(C(F)F)cc5c(c4s3)OCC(COC(=O)Nc3ccnc(C)c3)O5)cc(C)cc2n1 (centres unmarked) [Example 74, (4-(difluoromethyl)-2-(2-methoxy-7-methylquinoxalin-5-yl)-7,8-dihydro-[1,4]dioxino[2′,3′:3,4]benzo[1,2-d]thiazol-7-yl)methyl (2-methylpyridin-4-yl)carbamate] | 8.6
COc1cnc2c(-c3nc4c(F)cc5c(c4s3)OC[C@H](COC(=O)Nc3ccnc(C)c3)O5)cc(C)cc2n1 [Example 75, (R)-(4-fluoro-2-(2-methoxy-7-methylquinoxalin-5-yl)-7,8-dihydro-[1,4]dioxino[2′,3′:3,4]benzo[1,2-d]thiazol-7-yl)methyl (2-methylpyridin-4-yl)carbamate] | 4.9
COc1cnc2c(-c3nc4c(F)cc5c(c4s3)OC[C@H](COC(=O)Nc3ccc(C)nc3)O5)cc(C)cc2n1 [Example 76, (R)-(4-fluoro-2-(2-methoxy-7-methylquinoxalin-5-yl)-7,8-dihydro-[1,4]dioxino[2′,3′:3,4]benzo[1,2-d]thiazol-7-yl)methyl (6-methylpyridin-3-yl)carbamate] | 2.7
COc1cnc2c(-c3nc4c(C)cc5c(c4s3)OCC(COC(=O)Nc3cncc(C(N)=O)c3)O5)cc(C)cc2n1 (centres unmarked) [Example 77, (2-(2-methoxy-7-methylquinoxalin-5-yl)-4-methyl-7,8-dihydro-[1,4]dioxino [2′,3′:3,4]benzo[1,2-d]thiazol-7-yl)methyl (5-carbamoylpyridin-3-yl)carbamate] | 15
COc1cnc2c(-c3nc4c(C)cc5c(c4s3)OCC(COC(=O)Nc3ccc4c(c3)C(=O)NCC4)O5)cc(C)cc2n1 (centres unmarked) [Example 78, (2-(2-methoxy-7-methylquinoxalin-5-yl)-4-methyl-7,8-dihydro-[1,4]dioxino[2′,3′:3,4]benzo[1,2-d]thiazol-7-yl)methyl (1-oxo-1,2,3,4-tetrahydroisoquinolin-7-yl)carbamate] | 8.6
